Source: patent US11026880B2, “Extract of passionflower seeds and cosmetic, pharmaceutical, dermatological and nutraceutical compositions comprising same” (Laboratoires Expanscience, priority 2012, dated 2021)

Key:
[1] = test system: Normal human keratinocytes; experiment: Production of reactive oxygen species in keratinocytes under H2O2 stress (DCFH-DA probe); assay type: cell-based; details: for Amount of ROS DFU/OD540 (mean ± standard deviation): 24 hours preincubation, 100 μM H2O2 20 minutes
Procedure: The antioxidant action of passionflower hydrolysate on oxidative stress generated by hydrogen peroxide (H2O2) in keratinocytes was evaluated by measuring the amount of reactive oxygen species produced. This test is based on the use of a probe (DCFH-DA) that breaks down and fluoresces in contact with reactive oxygen species (ROS). The fluorescence emitted will be thus proportional to the amount of ROS produced by the cell in response to oxidative stress. Normal human keratinocytes were preincubated for 24 hours in the presence of passionflower hydrolysate or the reference molecules: 10 μM quercetin or 500 μM vitamin C. The cells were then incubated for 1 hour in the presence of the probe DCFH-DA and then treated with 100 μM H2O2 for 20 minutes, still in the presence of passionflower hydrolysate or the reference molecules. The ROS assay was carried out by measuring the fluorescence emitted. The results were normalized to the number of living cells determined using a neutral red uptake assay carried out in parallel. The amount of ROS emitted is thus expressed as fluorescence density (DFU)/optical density resulting from the neutral red assay (OD540). The results were statistically analyzed by one-way analysis of variance followed by Tukey's test.

Jurkat cells = experiment: Lipid peroxidation in UV-irradiated Jurkat cells (C11-fluorine probe, flow cytometry); assay type: cell-based; details: UV + 50 μM BHT
Procedure: The protective effect of passionflower hydrolysate on lipid peroxidation was evaluated in UV-irradiated Jurkat cells.
Jurkat cells were incubated for 45 minutes in the presence or absence of passionflower hydrolysate or the reference (50 μM BHT) and in the presence of the fluorescent probe specific for the measurement of lipid peroxides (C11-fluorine). This fluorescent probe is a lipid analog that integrates into membranes and whose fluorescence intensity decreases when peroxidized. The cells were then irradiated by UV (UVB 240 mJ/cm^2+UVA 3.5 J/cm^2) in the presence of passionflower hydrolysate or the reference. At the conclusion of the irradiation, the cells were incubated for 30 minutes at 37° C. prior to being analyzed by flow cytometry. The fluorescence intensity results obtained were expressed as a % of the irradiated control.

O=C1O[C@H]([C@@H](O)CO)C(O)=C1O [Vitamin C, vitamin C]
Amount of ROS DFU/OD540 (mean ± standard deviation) ([1]; 500 μM vitamin C): 35997.820 ± 10389.067 DFU/OD540
inhibition at 500 µM ([1]; Homo sapiens, Keratinocyte, 500 μM vitamin C, 100 μM H2O2, read-out: Inhibition relative to the H2O2 control (ROS)): 87%

Cc1cc(C(C)(C)C)c(O)c(C(C)(C)C)c1 [BHT]
Protection (%) against lipid peroxidation (Jurkat cells): 31%
Amount of lipid peroxides (% of the irradiated control) (Jurkat cells; UVB 240 mJ/cm^2+UVA 3.5 J/cm^2): 83 % of the irradiated control

O=c1c(O)c(-c2ccc(O)c(O)c2)oc2cc(O)cc(O)c12 [Quercetin, quercetin]
Amount of ROS DFU/OD540 (mean ± standard deviation) ([1]; 10 μM quercetin): 84549.570 ± 9476.724 DFU/OD540
inhibition at 10 µM ([1]; Homo sapiens, Keratinocyte, 10 μM quercetin, 100 μM H2O2, read-out: Inhibition relative to the H2O2 control (ROS)): 71%
